Reference: patent US12539292B2, “BRM targeting compounds and associated methods of use” (Arvinas Operations, Inc., priority 2018, dated 2026)

Target: T1, BRM (Homo sapiens, UniProt P51531)
T1 construct: In-Cell Western Screen of BRM Degradation in SW1573 Cells; endogenous in cells; host or cells: SW1573
Test: In-cell Western screen of BRM degradation in SW1573 cells (Dmax and DC50)
Assay type: cell-based
Details: BRM degradation, SW1573 cells, Table 2D; for DC50: read-out: *DC50; for Dmax: read-out: **Dmax (%) (% degraded)
In short: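 Near-infrared imaging on a LI-COR Odyssey (800 and 680 nm channels) quantifies BRM remaining in fixed SW1573 cells. Cells are dosed for 18-20 h at 0.1% final DMSO, and degradation is expressed as Dmax and DC50.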

T1 sequence (P51531 whole entry): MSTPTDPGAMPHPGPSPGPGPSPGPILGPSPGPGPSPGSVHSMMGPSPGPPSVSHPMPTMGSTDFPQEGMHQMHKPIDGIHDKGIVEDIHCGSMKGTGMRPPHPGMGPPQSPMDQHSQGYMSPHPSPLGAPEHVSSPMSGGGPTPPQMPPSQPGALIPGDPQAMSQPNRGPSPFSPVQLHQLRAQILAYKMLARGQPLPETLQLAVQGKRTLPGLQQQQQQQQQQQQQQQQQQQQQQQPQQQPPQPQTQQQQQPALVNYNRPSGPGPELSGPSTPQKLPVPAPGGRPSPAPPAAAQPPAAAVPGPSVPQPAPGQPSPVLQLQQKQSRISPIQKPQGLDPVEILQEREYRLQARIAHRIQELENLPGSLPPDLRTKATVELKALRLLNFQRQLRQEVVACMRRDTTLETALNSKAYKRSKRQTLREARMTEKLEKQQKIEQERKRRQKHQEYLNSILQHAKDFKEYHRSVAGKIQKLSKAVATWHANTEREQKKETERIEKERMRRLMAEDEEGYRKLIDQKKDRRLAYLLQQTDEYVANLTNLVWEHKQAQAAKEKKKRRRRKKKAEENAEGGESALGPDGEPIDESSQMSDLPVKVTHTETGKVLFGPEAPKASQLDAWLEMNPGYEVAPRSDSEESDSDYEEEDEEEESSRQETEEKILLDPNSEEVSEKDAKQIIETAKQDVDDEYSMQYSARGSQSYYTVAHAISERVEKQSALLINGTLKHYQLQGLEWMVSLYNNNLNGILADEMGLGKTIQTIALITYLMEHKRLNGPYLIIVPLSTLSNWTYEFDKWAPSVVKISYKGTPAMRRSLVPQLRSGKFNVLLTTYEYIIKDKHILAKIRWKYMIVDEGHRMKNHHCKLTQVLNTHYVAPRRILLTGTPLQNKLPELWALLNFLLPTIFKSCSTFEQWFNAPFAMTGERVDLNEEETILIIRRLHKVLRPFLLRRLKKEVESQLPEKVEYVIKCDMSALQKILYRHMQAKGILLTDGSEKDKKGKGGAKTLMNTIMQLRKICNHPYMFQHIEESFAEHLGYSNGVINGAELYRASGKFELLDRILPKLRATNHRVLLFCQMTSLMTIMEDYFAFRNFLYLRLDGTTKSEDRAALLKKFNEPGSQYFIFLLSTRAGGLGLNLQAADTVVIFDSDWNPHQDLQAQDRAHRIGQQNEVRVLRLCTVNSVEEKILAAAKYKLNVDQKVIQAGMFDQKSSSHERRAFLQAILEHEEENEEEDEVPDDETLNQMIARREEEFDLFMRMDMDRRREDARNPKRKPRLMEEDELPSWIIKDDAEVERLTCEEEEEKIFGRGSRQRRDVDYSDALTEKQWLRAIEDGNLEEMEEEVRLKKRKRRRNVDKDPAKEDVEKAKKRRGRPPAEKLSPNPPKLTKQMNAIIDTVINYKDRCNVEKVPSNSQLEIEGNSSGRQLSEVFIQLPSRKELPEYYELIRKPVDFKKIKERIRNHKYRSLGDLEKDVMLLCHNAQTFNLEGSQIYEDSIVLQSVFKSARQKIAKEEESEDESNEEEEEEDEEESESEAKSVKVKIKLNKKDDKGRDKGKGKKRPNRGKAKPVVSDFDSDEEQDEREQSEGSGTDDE

| Structure (SMILES) | DC50 [nM] | Dmax [%] |
| --- | --- | --- |
| Cc1ncsc1-c1ccc([C@H](C)NC(=O)[C@@H]2C[C@@H](O)CN2C(=O)[C@H](c2cc(OCCC3CCN(C[C@H]4C[C@H](Oc5cc(N6C7CCC6CN(c6cc(-c8ccccc8O)nnc6N)C7)ccn5)C4)CC3)no2)C(C)C)c(F)c1F [compound 587, (2S,4R)-1-((2S)-2-(3-(2-(1-(((1r,3S)-3-((4-(3-(3-amino-6-(2-hydroxyphenyl)pyridazin-4-yl)-3,8-diazabicyclo[3.2.1]octan-8-yl)pyridin-2-yl)oxy)cyclobutyl)methyl)piperidin-4-yl)ethoxy)isoxazol-5-yl)-3-methylbutanoyl)-N-((S)-1-(2,3-difluoro-4-(4-methylthiazol-5-yl)phenyl)ethyl)-4-hydroxypyrrolidine-2-carboxamide] | > 30 |  |
| Cc1ncsc1-c1ccc([C@H](C)NC(=O)[C@@H]2C[C@@H](O)CN2C(=O)[C@@H](c2cc(OCCC3CCN(C[C@H]4C[C@H](Oc5cc(N6C7CCC6CN(c6cc(-c8ccccc8O)nnc6N)C7)ccn5)C4)CC3)no2)C(C)C)c(F)c1F [compound 588, (2S,4R)-1-((2R)-2-(3-(2-(1-(((1r,3R)-3-((4-(3-(3-amino-6-(2-hydroxyphenyl)pyridazin-4-yl)-3,8-diazabicyclo[3.2.1]octan-8-yl)pyridin-2-yl)oxy)cyclobutyl)methyl)piperidin-4-yl)ethoxy)isoxazol-5-yl)-3-methylbutanoyl)-N-((S)-1-(2,3-difluoro-4-(4-methylthiazol-5-yl)phenyl)ethyl)-4-hydroxypyrrolidine-2-carboxamide] | < 2.5 | > 75 |
| Cc1ncsc1-c1cnc([C@H](C)NC(=O)[C@@H]2C[C@@H](O)CN2C(=O)[C@H](c2cc(N3CCC(CN4CCC(O[C@H]5C[C@H](Oc6cc(N7C8CCC7CN(c7cc(-c9ccccc9O)nnc7N)C8)ccn6)C5)CC4)CC3)no2)C(C)C)cn1 [compound 589, (2S,4R)-1-((2S)-2-(3-(4-((4-((1r,3r)-3-((4-(3-(3-amino-6-(2-hydroxyphenyl)pyridazin-4-yl)-3,8-diazabicyclo[3.2.1]octan-8-yl)pyridin-2-yl)oxy)cyclobutoxy)piperidin-1-yl)methyl)piperidin-1-yl)isoxazol-5-yl)-3-methylbutanoyl)-4-hydroxy-N-((S)-1-(5-(4-methylthiazol-5-yl)pyrazin-2-yl)ethyl)pyrrolidine-2-carboxamide] | > 30 |  |
| Cc1ncsc1-c1cnc([C@H](C)NC(=O)[C@@H]2C[C@@H](O)CN2C(=O)[C@@H](c2cc(N3CCC(CN4CCC(O[C@H]5C[C@H](Oc6cc(N7C8CCC7CN(c7cc(-c9ccccc9O)nnc7N)C8)ccn6)C5)CC4)CC3)no2)C(C)C)cn1 [compound 590, (2S,4R)-1-((2R)-2-(3-(4-((4-((1r,3r)-3-((4-(3-(3-amino-6-(2-hydroxyphenyl)pyridazin-4-yl)-3,8-diazabicyclo[3.2.1]octan-8-yl)pyridin-2-yl)oxy)cyclobutoxy)piperidin-1-yl)methyl)piperidin-1-yl)isoxazol-5-yl)-3-methylbutanoyl)-4-hydroxy-N-((S)-1-(5-(4-methylthiazol-5-yl)pyrazin-2-yl)ethyl)pyrrolidine-2-carboxamide] | < 2.5 | > 75 |
| Cc1ncsc1-c1ccc([C@H](C)NC(=O)[C@@H]2C[C@@H](O)CN2C(=O)[C@@H](c2cc(N3CCN(CCN4CCC(C(C)n5cc(-c6cc(-c7ccccc7O)nnc6N)cn5)CC4)CC3)no2)C(C)C)cc1 (stereo partly drawn) [compound 591, (2S,4R)-1-((2R)-2-(3-(4-(2-(4-(1-(4-(3-amino-6-(2-hydroxyphenyl)pyridazin-4-yl)-1H-pyrazol-1-yl)ethyl)piperidin-1-yl)ethyl)piperazin-1-yl)isoxazol-5-yl)-3-methylbutanoyl)-4-hydroxy-N-((S)-1-(4-(4-methylthiazol-5-yl)phenyl)ethyl)pyrrolidine-2-carboxamide] | < 2.5 | > 75 |
| Cc1ncsc1-c1ccc([C@H](C)NC(=O)[C@@H]2C[C@@H](O)CN2C(=O)[C@@H](c2cc(N3CCN(CCOc4cc(N5C6CCC5CN(c5cc(-c7ccccc7O)nnc5N)C6)ccn4)CC3)no2)C(C)C)cc1 [compound 592, (2S,4R)-1-((2R)-2-(3-(4-(2-((4-(3-(3-amino-6-(2-hydroxyphenyl)pyridazin-4-yl)-3,8-diazabicyclo[3.2.1]octan-8-yl)pyridin-2-yl)oxy)ethyl)piperazin-1-yl)isoxazol-5-yl)-3-methylbutanoyl)-4-hydroxy-N-((S)-1-(4-(4-methylthiazol-5-yl)phenyl)ethyl) pyrrolidine-2-carboxamide] | < 2.5 | > 75 |
| Cc1ncsc1-c1ccc([C@H](C)NC(=O)[C@@H]2C[C@@H](O)CN2C(=O)[C@H](c2cc(OCCC3CCN(C[C@H]4C[C@H](N5CCC(CN6CCOC7(CCN(c8cc(-c9ccccc9O)nnc8N)CC7)C6)CC5)C4)CC3)no2)C(C)C)cc1 [compound 597, (2S,4R)-1-((S)-2-(3-(2-(1-(((1r,3S)-3-(4-((9-(3-amino-6-(2-hydroxyphenyl)pyridazin-4-yl)-1-oxa-4,9-diazaspiro[5.5]undecan-4-yl)methyl)piperidin-1-yl)cyclobutyl)methyl)piperidin-4-yl)ethoxy)isoxazol-5-yl)-3-methylbutanoyl)-4-hydroxy-N-((S)-1-(4-(4-methylthiazol-5-yl)phenyl)ethyl)pyrrolidine-2-carboxamide] | 10 to 30 | > 75 |
| Cc1ncsc1-c1ccc([C@H](C)NC(=O)[C@@H]2C[C@@H](O)CN2C(=O)[C@@H](c2cc(OCCC3CCN(C[C@H]4C[C@H](N5CCC(CN6CCOC7(CCN(c8cc(-c9ccccc9O)nnc8N)CC7)C6)CC5)C4)CC3)no2)C(C)C)cc1 [compound 598, (2S,4R)-1-((R)-2-(3-(2-(1-(((1r,3R)-3-(4-((9-(3-amino-6-(2-hydroxyphenyl)pyridazin-4-yl)-1-oxa-4,9-diazaspiro[5.5]undecan-4-yl)methyl)piperidin-1-yl)cyclobutyl)methyl)piperidin-4-yl)ethoxy)isoxazol-5-yl)-3-methylbutanoyl)-4-hydroxy-N-((S)-1-(4-(4-methylthiazol-5-yl)phenyl)ethyl)pyrrolidine-2-carboxamide] | < 2.5 | > 75 |
| Cc1ncsc1-c1ccc([C@H](C)NC(=O)[C@@H]2C[C@@H](O)CN2C(=O)[C@@H](c2cc(OCCC3CCN(C[C@H]4C[C@H](N5CCC(C(C)n6cc(-c7cc(-c8ccccc8O)nnc7N)cn6)CC5)C4)CC3)no2)C(C)C)cc1 (stereo partly drawn) [compound 599, (2S,4R)-1-((2R)-2-(3-(2-(1-(((1r,3R)-3-(4-(1-(4-(3-amino-6-(2-hydroxyphenyl)pyridazin-4-yl)-1H-pyrazol-1-yl)ethyl)piperidin-1-yl)cyclobutyl)methyl)piperidin-4-yl)ethoxy)isoxazol-5-yl)-3-methylbutanoyl)-4-hydroxy-N-((S)-1-(4-(4-methylthiazol-5-yl)phenyl)ethyl)pyrrolidine-2-carboxamide] | < 2.5 | > 75 |
| Cc1nccn1-c1ccc([C@H](C)NC(=O)[C@@H]2C[C@@H](O)CN2C(=O)[C@H](c2cc(N3CCC(O[C@H]4C[C@H](Oc5cc(N6C7CCC6CN(c6cc(-c8ccccc8O)nnc6N)C7)ccn5)C4)CC3)no2)C(C)C)cc1 [compound 600, (2S,4R)-1-((2S)-2-(3-(4-((1r,3S)-3-((4-(3-(3-amino-6-(2-hydroxyphenyl)pyridazin-4-yl)-3,8-diazabicyclo[3.2.1]octan-8-yl)pyridin-2-yl)oxy)cyclobutoxy)piperidin-1-yl)isoxazol-5-yl)-3-methylbutanoyl)-4-hydroxy-N-((S)-1-(4-(2-methyl-1H-imidazol-1-yl)phenyl)ethyl)pyrrolidine-2-carboxamide] | > 30 |  |
| Cc1nccn1-c1ccc([C@H](C)NC(=O)[C@@H]2C[C@@H](O)CN2C(=O)[C@@H](c2cc(N3CCC(O[C@H]4C[C@H](Oc5cc(N6C7CCC6CN(c6cc(-c8ccccc8O)nnc6N)C7)ccn5)C4)CC3)no2)C(C)C)cc1 [compound 601, (2S,4R)-1-((2R)-2-(3-(4-((1r,3R)-3-((4-(3-(3-amino-6-(2-hydroxyphenyl)pyridazin-4-yl)-3,8-diazabicyclo[3.2.1]octan-8-yl)pyridin-2-yl)oxy)cyclobutoxy)piperidin-1-yl)isoxazol-5-yl)-3-methylbutanoyl)-4-hydroxy-N-((S)-1-(4-(2-methyl-1H-imidazol-1-yl)phenyl)ethyl)pyrrolidine-2-carboxamide] | < 2.5 | > 75 |
| Cc1ncsc1-c1ccc([C@H](C)NC(=O)[C@@H]2C[C@@H](O)CN2C(=O)[C@@H](c2cc(N3CCC(CN4CCC(Oc5cc(N6C7CCC6CN(c6cc(-c8ccccc8O)nnc6N)C7)ccn5)CC4)CC3)no2)C(C)C)cc1 [compound 602, (2S,4R)-1-((2R)-2-(3-(4-((4-((4-(3-(3-amino-6-(2-hydroxyphenyl)pyridazin-4-yl)-3,8-diazabicyclo[3.2.1]octan-8-yl)pyridin-2-yl)oxy)piperidin-1-yl)methyl)piperidin-1-yl)isoxazol-5-yl)-3-methylbutanoyl)-4-hydroxy-N-((S)-1-(4-(4-methylthiazol-5-yl)phenyl)ethyl)pyrrolidine-2-carboxamide] | < 2.5 | > 75 |
| Cc1ncsc1-c1ccc([C@H](C)NC(=O)[C@@H]2C[C@@H](O)CN2C(=O)[C@@H](c2cc(N3CCC(CN4CCC(COc5cc(N6C7CCC6CN(c6cc(-c8ccccc8O)nnc6N)C7)ccn5)CC4)CC3)no2)C(C)C)cc1 [compound 603, (2S,4R)-1-((2R)-2-(3-(4-((4-(((4-(3-(3-amino-6-(2-hydroxyphenyl)pyridazin-4-yl)-3,8-diazabicyclo[3.2.1]octan-8-yl)pyridin-2-yl)oxy)methyl)piperidin-1-yl)methyl)piperidin-1-yl)isoxazol-5-yl)-3-methylbutanoyl)-4-hydroxy-N-((S)-1-(4-(4-methylthiazol-5-yl)phenyl)ethyl)pyrrolidine-2-carboxamide] | < 2.5 | > 75 |
